Several values for one entry are separate records, joined by “and”; a condition that tells them apart may be missing. Equal entries are not always repeated. Inconclusive results and toxic doses are left out. Rule as the data show it: active = T/C of 150% or more; inactive = T/C below 125%.
System: L1210 leukemia ip in BDF1 mice, survival T/C
Assay: NCI In Vivo Anticancer Drug Screen. Data for tumor model L1210 Leukemia (intraperitoneal) in B6D2F1 (BDF1) mice
Conditions: endpoint: mean survival time, higher = longer survival
In short: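 Each compound was tested against a transplantable tumor grown in mice. The endpoint was survival, with treated animals benchmarked against vehicle controls as a simple ratio.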

[1] = dose: 100.0 mg/kg/injection, schedule: Q01DX009 (ip), vehicle: Klucel (hydroxypropylcellulose) (HPC)
[2] = dose: 200.0 mg/kg/injection, schedule: Q01DX009 (ip), vehicle: Klucel (hydroxypropylcellulose) (HPC)
[3] = dose: 400.0 mg/kg/injection, schedule: Q01DX009 (ip), vehicle: Klucel (hydroxypropylcellulose) (HPC)
[4] = dose: 50.0 mg/kg/injection, schedule: Q01DX009 (ip), vehicle: Klucel (hydroxypropylcellulose) (HPC)
[5] = dose: 100.0 mg/kg/injection, schedule: Q01DX001 (ip), vehicle: saline
[6] = dose: 25.0 mg/kg/injection, schedule: Q01DX009 (ip), vehicle: water
[7] = dose: 50.0 mg/kg/injection, schedule: Q01DX009 (ip), vehicle: water
[8] = dose: 100.0 mg/kg/injection, schedule: Q01DX009 (ip), vehicle: water
[9] = dose: 200.0 mg/kg/injection, schedule: Q01DX009 (ip), vehicle: water
[10] = dose: 100.0 mg/kg/injection, schedule: Q01DX001 (ip), vehicle: saline with Tween-80

Measured: T/C

Cc1cccc(C)c1NC(=O)Nc1ncccn1
inactive: dose: 25.0 mg/kg/injection, schedule: Q04DX002 (ip), vehicle: Klucel (hydroxypropylcellulose) (HPC) 99 % of control | dose: 50.0 mg/kg/injection, schedule: Q04DX002 (ip), vehicle: Klucel (hydroxypropylcellulose) (HPC) 96 % of control | [1] 103 % of control | dose: 100.0 mg/kg/injection, schedule: Q04DX002 (ip), vehicle: Klucel (hydroxypropylcellulose) (HPC) 105 % of control | [2] 104 % of control | dose: 200.0 mg/kg/injection, schedule: Q04DX002 (ip), vehicle: Klucel (hydroxypropylcellulose) (HPC) 97 % of control | [3] 101 % of control | dose: 400.0 mg/kg/injection, schedule: Q04DX002 (ip), vehicle: Klucel (hydroxypropylcellulose) (HPC) 93 % of control

CCOC(=O)c1cnc(SC)nc1Nc1cccc(C(F)(F)F)c1
inactive: dose: 50.0 mg/kg/injection, schedule: Q01DX001 (ip), vehicle: gum acacia 96 % of control | dose: 87.0 mg/kg/injection, schedule: Q01DX009 (ip), vehicle: gum acacia 100 % of control | dose: 100.0 mg/kg/injection, schedule: Q01DX001 (ip), vehicle: gum acacia 89 % of control and 90 % of control | dose: 175.0 mg/kg/injection, schedule: Q01DX009 (ip), vehicle: gum acacia 99 % of control | dose: 200.0 mg/kg/injection, schedule: Q01DX001 (ip), vehicle: gum acacia 89 % of control | dose: 350.0 mg/kg/injection, schedule: Q01DX009 (ip), vehicle: gum acacia 94 % of control | dose: 400.0 mg/kg/injection, schedule: Q01DX001 (ip), vehicle: gum acacia 99 % of control

O=C(O)C(CCl)(CCl)CCl
inactive: dose: 50.0 mg/kg/injection, schedule: Q01DX009 (ip), vehicle: saline 106 % of control | dose: 100.0 mg/kg/injection, schedule: Q01DX009 (ip), vehicle: saline 98 % of control | dose: 200.0 mg/kg/injection, schedule: Q01DX009 (ip), vehicle: saline 95 % of control

CC(=O)CC(=O)Oc1ccccc1OC(C)=O
inactive: [4] 103 % of control | [1] 101 % of control | dose: 100.0 mg/kg/injection, schedule: Q04DX003 (ip), vehicle: Klucel (hydroxypropylcellulose) (HPC) 100 % of control | [2] 114 % of control | dose: 200.0 mg/kg/injection, schedule: Q04DX003 (ip), vehicle: Klucel (hydroxypropylcellulose) (HPC) 102 % of control

Cc1nc(C#N)c(C#N)nc1C
inactive: dose: 6.25 mg/kg/injection, schedule: Q01DX009 (ip), vehicle: Klucel (hydroxypropylcellulose) (HPC) 96 % of control | dose: 12.5 mg/kg/injection, schedule: Q01DX009 (ip), vehicle: Klucel (hydroxypropylcellulose) (HPC) 98 % of control | dose: 12.5 mg/kg/injection, schedule: Q04DX003 (ip), vehicle: Klucel (hydroxypropylcellulose) (HPC) 101 % of control | dose: 25.0 mg/kg/injection, schedule: Q04DX003 (ip), vehicle: Klucel (hydroxypropylcellulose) (HPC) 100 % of control

BrC1C2CC(c3ccccc32)C1Br (stereo not drawn)
inactive: dose: 100.0 mg/kg/injection, schedule: Q01DX009 (ip), vehicle: saline with Tween-80 101 % of control | dose: 100.0 mg/kg/injection, schedule: Q04DX003 (ip), vehicle: saline with Tween-80 94 % of control | dose: 200.0 mg/kg/injection, schedule: Q01DX009 (ip), vehicle: saline with Tween-80 91 % of control | dose: 200.0 mg/kg/injection, schedule: Q04DX003 (ip), vehicle: saline with Tween-80 93 % of control | dose: 400.0 mg/kg/injection, schedule: Q01DX009 (ip), vehicle: saline with Tween-80 98 % of control | dose: 400.0 mg/kg/injection, schedule: Q04DX003 (ip), vehicle: saline with Tween-80 95 % of control

N#CC12CCCCC(=O)N1C=Cc1ccccc12 (stereo not drawn)
inactive: [5] 96 % of control | dose: 200.0 mg/kg/injection, schedule: Q01DX001 (ip), vehicle: saline 96 % of control | dose: 400.0 mg/kg/injection, schedule: Q01DX001 (ip), vehicle: saline 93 % of control

CON=C1CCC(C(C)(C)C)CC1 (stereo not drawn)
inactive: dose: 75.0 mg/kg/injection, schedule: Q01DX001 (ip), vehicle: carboxymethylcellulose (CMC) 106 % of control

O=c1[nH]c(=O)c2nccnc2[nH]1
inactive: [6] 109 % of control | [7] 111 % of control | [8] 104 % of control | [9] 101 % of control

CCCCCCCCCCCCCCCCS(=O)(=O)c1ccc(S(=O)(=O)CS(C)(=O)=O)cc1[N+](=O)[O-]
inactive: dose: 100.0 mg/kg/injection, schedule: Q01DX001 (ip), vehicle: other 98 % of control | dose: 200.0 mg/kg/injection, schedule: Q01DX001 (ip), vehicle: other 91 % of control

O=C(O)c1c(Br)c(Br)c(Br)c(Br)c1C(=O)O
inactive: dose: 100.0 mg/kg/injection, schedule: Q04DX002 (ip), vehicle: saline 107 % of control | dose: 200.0 mg/kg/injection, schedule: Q04DX002 (ip), vehicle: saline 110 % of control | dose: 400.0 mg/kg/injection, schedule: Q04DX002 (ip), vehicle: saline 103 % of control

CC(=O)Oc1cc(-c2ccccc2)c(OC(C)=O)cc1-c1ccccc1
inactive: [6] 96 % of control | [7] 101 % of control | [8] 94 % of control | [9] 101 % of control | dose: 400.0 mg/kg/injection, schedule: Q01DX009 (ip), vehicle: water 100 % of control

Fc1ccc(NC(=S)NCCN2CCCC2)cc1
inactive: dose: 25.0 mg/kg/injection, schedule: Q01DX009 (ip), vehicle: Klucel (hydroxypropylcellulose) (HPC) 100 % of control | [4] 117 % of control | [1] 100 % of control and 102 % of control

O=C1C(=C(C(F)(F)Cl)C(F)(F)Cl)C2CCC1C2 (stereo not drawn)
inactive: dose: 6.25 mg/kg/injection, schedule: Q01DX009 (ip), vehicle: saline with Tween-80 95 % of control | dose: 12.0 mg/kg/injection, schedule: Q01DX001 (ip), vehicle: saline with Tween-80 104 % of control | dose: 12.5 mg/kg/injection, schedule: Q01DX009 (ip), vehicle: saline with Tween-80 95 % of control | dose: 25.0 mg/kg/injection, schedule: Q01DX001 (ip), vehicle: saline with Tween-80 100 % of control | dose: 25.0 mg/kg/injection, schedule: Q01DX009 (ip), vehicle: saline with Tween-80 102 % of control and 92 % of control | dose: 50.0 mg/kg/injection, schedule: Q01DX001 (ip), vehicle: saline with Tween-80 100 % of control | dose: 50.0 mg/kg/injection, schedule: Q01DX009 (ip), vehicle: saline with Tween-80 107 % of control | [10] 91 % of control

O=C1NC(=O)C(Cc2ccccc2)(Cc2ccccc2)C(=O)N1
inactive: dose: 100.0 mg/kg/injection, schedule: Q01DX001 (ip), vehicle: carboxymethylcellulose (CMC) 103 % of control | dose: 200.0 mg/kg/injection, schedule: Q01DX001 (ip), vehicle: carboxymethylcellulose (CMC) 95 % of control | dose: 400.0 mg/kg/injection, schedule: Q01DX001 (ip), vehicle: carboxymethylcellulose (CMC) 95 % of control

CCCCN=C(N)N=C(N)N
inactive: dose: 5.0 mg/kg/injection, schedule: Q01DX001 (ip), vehicle: saline 107 % of control | dose: 10.0 mg/kg/injection, schedule: Q01DX001 (ip), vehicle: saline 92 % of control | dose: 20.0 mg/kg/injection, schedule: Q01DX001 (ip), vehicle: saline 97 % of control | dose: 40.0 mg/kg/injection, schedule: Q01DX001 (ip), vehicle: saline 102 % of control | dose: 80.0 mg/kg/injection, schedule: Q01DX001 (ip), vehicle: saline 105 % of control | [5] 109 % of control

Cn1c(=S)[nH]c2cn[nH]c2c1=O
inactive: [10] 93 % of control | dose: 200.0 mg/kg/injection, schedule: Q01DX001 (ip), vehicle: saline with Tween-80 97 % of control | dose: 400.0 mg/kg/injection, schedule: Q01DX001 (ip), vehicle: saline with Tween-80 89 % of control

CC(C)(Br)C(=O)C(C)(C)Br
inactive: dose: 75.0 mg/kg/injection, schedule: Q01DX001 (ip), vehicle: saline 93 % of control | [1] 103 % of control | dose: 150.0 mg/kg/injection, schedule: Q01DX001 (ip), vehicle: saline 96 % of control | [2] 100 % of control | dose: 300.0 mg/kg/injection, schedule: Q01DX001 (ip), vehicle: saline 92 % of control | [3] 91 % of control

C[N+](C)(Cc1ccccc1)C1c2ccccc2-c2ccc(Cl)cc21 (stereo not drawn)
inactive: dose: 6.25 mg/kg/injection, schedule: Q04DX002 (ip), vehicle: saline with Tween-80 91 % of control | dose: 12.5 mg/kg/injection, schedule: Q04DX002 (ip), vehicle: saline with Tween-80 94 % of control | dose: 25.0 mg/kg/injection, schedule: Q04DX002 (ip), vehicle: saline with Tween-80 88 % of control

Source: PubChem BioAssay AID248 (DTP/NCI, 2004)
